54 compounds from US6288091A, “Antiherpes virus compounds and methods for their preparation and use” (Boehringer Ingelheim Ltd., priority 1999, dated 2001) can be followed below.

The subject of this assay is HCMV (strain AD169). Put plainly: Inhibition of HCMV replication, ELISA assay (Hs-68 cells). The following applies: read-out: ELISA CMV EC50. It is filed as cell-based, Human Cytomegalovirus (HCMV). The method in brief:
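EC50 derived from % inhibition of viral replication, read as p28 late-protein ELISA signal (mAb UL99, peroxidase/OPD, 450 nm) on fixed cells. Read-out came 8 days post-infection at 37 °C in DMEM with 5% FBS plus compound, after 2 h adsorption of AD169 at MOI 0.01 PFU/cell onto near-confluent Hs-68 cells.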
For orientation: ELISA stands for enzyme-linked immunosorbent assay.

The mark [1] stands for this setting: Human betaherpesvirus 5, AD169, Hs68, Group 1 Table 3 entries.
Where [2] appears, read: Human betaherpesvirus 5, AD169, Hs68, Group 1 Table 2 entries.
Where [3] appears, read: Human betaherpesvirus 5, AD169, Hs68, Group 1 Table 1 entries.
Setting [4] is: Human betaherpesvirus 5, AD169, Hs68, Group 1 Table 5 entries.

Like-named read-outs stand apart in the source and are kept apart here. Some results are limits rather than exact numbers.

Usually EC50 stands for the concentration giving half of the maximal effect.

Regarding `CN(C(=O)CN(Cc1ccccc1)C(=O)C1CCCCC1)c1ccc(-c2csc(N)n2)cc1` [Example 1], under setting [1], the EC50 is more than 46 µM.
Regarding `Nc1nc(-c2ccc(NC(=O)CCNCc3ccccc3)cc2)cs1` [Example 1], the EC50 under setting [2] was found to be 3.2 µM.
Consider `Nc1nc(-c2ccc(NC(=O)CNCc3ccccc3)cc2)cs1` [Example 1], for which, under setting [3], the EC50 was 25 µM.
Consider `Nc1nc(-c2ccc(NC(=O)CCN(Cc3ccccc3)Cc3ccccc3)cc2)cs1` [Example 2], for which, under setting [2], the concentration for a half-maximal effect (EC50) is 0.55 µM.
Turning to `CC(C)(C)OC(=O)N[C@@H](Cc1ccccc1)C(=O)Nc1ccc(-c2csc(N)n2)cc1` [Example 3], the concentration for a half-maximal effect (EC50) under setting [4] came out at 0.14 µM.
On to `Nc1nc(-c2ccc(NC(=O)CCN(Cc3ccccc3)C(=O)c3ccccc3)cc2)cs1` [Example 3], for which the EC50 under setting [2] turned out to be 1.2 µM.
Consider `CC(C)(C)OC(=O)N[C@H](Cc1ccccc1)C(=O)Nc1ccc(-c2csc(N)n2)cc1` [Example 4], for which the EC50 under setting [4] was 0.25 µM.
As to `O=C(CN(Cc1ccccc1)C(=O)C1CCCCC1)Nc1ccc(-c2cscn2)cc1` [Example 5], the EC50 under setting [1] was more than 63 µM.
Same read-out and setting: with `CNc1nc(-c2ccc(NC(=O)CN(Cc3ccccc3)C(=O)c3ccccc3)cc2)cs1` [Example 6] the figure was 51 µM.
For the compound `Nc1nc(-c2ccc(NC(=O)[C@H](Cc3ccccc3)NCc3ccccc3)cc2)cs1` [Example 6], under setting [4], the half-maximal effective concentration (EC50) worked out at 0.14 µM.
Regarding `CN[C@@H](Cc1ccccc1)C(=O)Nc1ccc(-c2csc(N)n2)cc1` [Example 8], the EC50 under setting [4] turned out to be 1.1 µM.
Turning to `Nc1nc(-c2ccc(NC(=O)[C@@H](Cc3ccccc3)N(Cc3ccccc3)C(=O)C3CCCCC3)cc2)cs1` [Example 9], the EC50 under setting [4] turned out to be 4 µM.
As for `CN(C)c1nc(-c2ccc(NC(=O)CN(Cc3ccccc3)C(=O)c3ccccc3)cc2)cs1` [Example 11], under setting [1], the EC50 came to 3.5 µM.
For the compound `C[C@@H](NCC(=O)Nc1ccc(-c2csc(N)n2)cc1)c1ccccc1` [Example 11], under setting [3], the EC50 came to 19 µM.
`Nc1nc(-c2ccc(NC(=O)CCN(C(=O)c3cccnc3)C3Cc4ccccc4C3)cc2)cs1` [Example 12]: the 50% effective concentration (EC50) under setting [2] is 6.5 µM.
On the same count and under the same terms, with `CC(C)(C)OC(=O)N(CCC(=O)Nc1ccc(-c2csc(N)n2)cc1)C1Cc2ccccc2C1` [Example 14] the figure was 0.2 µM; with `CC(C)(C)OC(=O)N(CCC(=O)Nc1ccc(-c2csc(N)n2)cc1)Cc1ccccc1` [Example 15], 11.3 µM.
Regarding `CN(CC(=O)Nc1ccc(-c2csc(N)n2)cc1)Cc1ccccc1` [Example 15], the concentration giving a half-maximal response (EC50) under setting [3] turned out to be 6.2 µM.
The same measure, in the same setting: with `Nc1nc(-c2ccc(NC(=O)CN(Cc3ccccc3)Cc3ccccc3)cc2)cs1` [Example 16] the figure was 3.8 µM.
`Nc1nc(-c2ccc(NC(=O)CCN(Cc3ccccc3)CC3CCCCC3)cc2)cs1` [Example 17]: the EC50 under setting [2] was determined as 4.7 µM.
With `CC(=O)Nc1nc(-c2ccc(NC(=O)CN(Cc3ccccc3)C(C)=O)cc2)cs1` [Example 18], the EC50 under setting [1] was determined as 2.8 µM.
Regarding `C[C@@H](c1ccccc1)N(CCC(=O)Nc1ccc(-c2csc(N)n2)cc1)C(=O)OC(C)(C)C` [Example 18], under setting [2], the concentration giving a half-maximal response (EC50) worked out at 2.9 µM.
As to `C[C@@H](c1ccccc1)N(CCC(=O)Nc1ccc(-c2csc(N)n2)cc1)Cc1ccccc1` [Example 19], the concentration giving a half-maximal response (EC50) under setting [2] was 3.1 µM.
Regarding `CC(C)c1nc(-c2ccc(NC(=O)CN(Cc3ccccc3)C(=O)c3ccccc3)cc2)cs1` [Example 20], the EC50 under setting [1] turned out to be 3.3 µM.
On to `C[C@H](NCCC(=O)Nc1ccc(-c2csc(N)n2)cc1)c1ccccc1` [Example 20], for which the EC50 under setting [2] was 0.8 µM.
The same measure, in the same setting: with `CC(C)(C)OC(=O)N(CCC(=O)Nc1ccc(-c2csc(N)n2)cc1)CC1CCCCC1` [Example 21] the figure was 4.2 µM.
`Nc1nc(-c2ccc(NC(=O)CN(Cc3ccccc3)C(=O)c3ccccc3)cc2)cs1` [Example 23]: the EC50 under setting [3] turned out to be 12 µM.
Take `Nc1nc(-c2ccc(NC(=O)CCN(CC3CCCCC3)C(=O)c3cccnc3)cc2)cs1` [Example 24]: the EC50 under setting [2] was found to be 0.45 µM.
As to `Nc1nc(-c2ccc(NC(=O)CN(Cc3ccccc3)C(=O)c3ccc(F)cc3)cc2)cs1` [Example 24], the EC50 under setting [3] came out at 14 µM.
Regarding `C[C@@H](NCCC(=O)Nc1ccc(-c2csc(N)n2)cc1)c1ccccc1` [Example 25], the EC50 under setting [2] worked out at 1 µM.
As to `Nc1nc(-c2ccc(NC(=O)CN(Cc3ccccc3)C(=O)Cc3ccccc3)cc2)cs1` [Example 26], the 50% effective concentration (EC50) under setting [3] was 1.8 µM.
On the same count and under the same terms, with `Nc1nc(-c2ccc(NC(=O)CN(Cc3ccccc3)C(=O)c3cccnc3)cc2)cs1` [Example 28] the figure was 4.6 µM; with `Nc1nc(-c2ccc(NC(=O)CN(Cc3ccccc3)C(=O)c3cc[n+]([O-])cc3)cc2)cs1` [Example 30], 77 µM; with `Nc1nc(-c2ccc(NC(=O)CN(Cc3ccccc3)C(=O)Cc3ccccn3)cc2)cs1` [Example 31], 1.3 µM.
Same read-out and setting: with `Nc1nc(-c2ccc(NC(=O)CN(Cc3ccccc3)C(=O)c3cccs3)cc2)cs1` [Example 32] the figure was 5.4 µM.
As to `Nc1nc(-c2ccc(NC(=O)CN(Cc3ccccc3)C(=O)c3cnccn3)cc2)cs1` [Example 33], the EC50 under setting [3] was determined as 28.2 µM.
On the same count and under the same terms, with `Nc1nc(-c2ccc(NC(=O)CN(Cc3ccccc3)C(=O)C3CCCCC3)cc2)cs1` [Example 34] the figure was 1 µM.
Take `Nc1nc(-c2ccc(NC(=O)CN(Cc3ccccc3)C(=O)CC3CCCCC3)cc2)cs1` [Example 38]: under setting [3], the EC50 came out at 4 µM.
Consider `Nc1nc(-c2ccc(NC(=O)CN(Cc3ccccc3)C(=O)CC3CCCC3)cc2)cs1` [Example 39], for which, under setting [3], the EC50 came to 6.1 µM.
Same read-out and setting: with `CC(C)(C)C(=O)N(CC(=O)Nc1ccc(-c2csc(N)n2)cc1)Cc1ccccc1` [Example 41] the figure was 14 µM; with `CC(C)(C)CC(=O)N(CC(=O)Nc1ccc(-c2csc(N)n2)cc1)Cc1ccccc1` [Example 42], 6 µM.
As to `CC(C)C(=O)N(CC(=O)Nc1ccc(-c2csc(N)n2)cc1)Cc1ccccc1` [Example 43], the EC50 under setting [3] is 25 µM.
On the same count and under the same terms, with `CC(=O)N(CC(=O)Nc1ccc(-c2csc(N)n2)cc1)Cc1ccccc1` [Example 44] the figure was 16 µM; with `Nc1nc(-c2ccc(NC(=O)CN(Cc3ccccn3)C(=O)C3CCCCC3)cc2)cs1` [Example 47], 19 µM.
With `Nc1nc(-c2ccc(NC(=O)CN(Cc3cccnc3)C(=O)C3CCCCC3)cc2)cs1` [Example 48], the EC50 under setting [3] worked out at 5 µM.
With `Nc1nc(-c2ccc(NC(=O)CN(CCc3ccccn3)C(=O)C3CCCCC3)cc2)cs1` [Example 50], the EC50 under setting [3] stood at 1.6 µM.
Turning to `Nc1nc(-c2ccc(NC(=O)CN(Cc3cccs3)C(=O)C3CCCCC3)cc2)cs1` [Example 51], the EC50 under setting [3] came to 6 µM.
Regarding `C[C@H](c1ccccc1)N(CC(=O)Nc1ccc(-c2csc(N)n2)cc1)C(=O)C1CCCCC1` [Example 52], under setting [3], the EC50 is 1.3 µM.
For `C[C@@H](c1ccccc1)N(CC(=O)Nc1ccc(-c2csc(N)n2)cc1)C(=O)C1CCCCC1` [Example 53], the EC50 under setting [3] is 3.2 µM.
On the same count and under the same terms, with `Nc1nc(-c2ccc(NC(=O)CN(CC3CCCCC3)C(=O)c3ccccc3)cc2)cs1` [Example 60] the figure was 3 µM.
Regarding `Nc1nc(-c2ccc(NC(=O)CN(CC3CCCCC3)C(=O)C3CCNCC3)cc2)cs1` [Example 62], the concentration giving a half-maximal response (EC50) under setting [3] worked out at 2.2 µM.
The same measure, in the same setting: with `Nc1nc(-c2ccc(NC(=O)CN(CCc3ccccc3)C(=O)C3CCCC3)cc2)cs1` [Example 66] the figure was 0.35 µM; with `CC(C)(C)OC(=O)NCC(=O)N(CC(=O)Nc1ccc(-c2csc(N)n2)cc1)Cc1ccccc1` [Example 72], 7.5 µM; with `Nc1nc(-c2ccc(NC(=O)CN(CC3CCCCC3)C(=O)Cc3ccccc3)cc2)cs1` [Example 77], 6.1 µM.
